Source: US12343332B2, “Treatment of a bacterial vaginal infection” (Adamed Pharma S.A., priority 2017, dated 2025)
Values after ≈ are worked out from the molar mass of the structure shown. “Also recorded” adds a separate entry of the source. Like-named read-outs stand apart in the source and are kept apart here.

How the values were obtained:
Format in all cases: cell-based
[1] = system: Atopobium vaginae ATCC BAA 55; experiment: MIC, macro dilution method for bacteria in a solid medium; conditions: for MIC: Fannyhessea vaginae, BAA55, 168 h, read-out: MIC value; for antibacterial activity (in words): against Atopobium vaginae
Method: (§1) Strains used in the study were Gardnerella vaginalis ATCC 14018, Atopobium vaginae ATCC BAA 55, Candida albicans ATCC 90028, and Candida [NT] 2001. […] To perform the assay, a pure, 48-hour strain reference culture was used, from which a bacterial suspension with a density of 1.0 McFarland in sterile saline was prepared. The suspension was plated onto Schaedler agar medium supplemented with 5% sheep blood (Becton Dickinson) and a test compound at the appropriate concentration. After incubation, the value MIC was read. Colony growth on the plate indicated no activity of the test compound at tested concentration. As the MIC value, the last lowest concentration as taken, at which there was no microbial growth. [table]

[2] = system: Gardnerella vaginalis ATCC 14018; experiment: as above; conditions: for MIC: Gardnerella vaginalis, ATCC14018, 72 h, read-out: MIC value; for antibacterial activity (in words): against Gardnerella vaginalis
Method: as §1

[3] = system: Candida glabrata ATCC 2001; experiment: Synergistic action at 2-fold lower concentrations than MIC, liquid medium; conditions: for Synergy with Metronidazole / Synergy with Nystatin: Candida glabrata ATCC 2001, each nitrofuran 250 mg/L; for Synergy with Metronidazole: Metronidazole 125 mg/L; for Synergy with Nystatin: Nystatin 0.98 mg/L
Method: (§2) Liquid medium RPMI 1640 (Sigma-Aldrich) was used for fungi of the species Candida albicans ATCC 90028, and Candida [NT] 2001, in which 15 serial dilution were prepared in a range 500 μg/mL-0.03 μg/mL. From a pure 24-hour culture on Sabouraud solid medium, a fungal suspension having density of 0.5 McFarland in sterile saline. Next, the suspension was diluted, and was introduced into the RPMI 1640 medium yielding final concentrations of fungi 10^5 CFU/mL. Incubation was carried out for 24 hours in aerobic conditions in 37° C. Colony growth on the plate indicated no activity of the test compound at tested concentration. As the MIC value, the last lowest concentration as taken, at which there was no microbial growth […] Lack of fungal growth on the plate was interpreted as a synergic action.

[4] = system: Candida albicans ATCC 90028; experiment: as above; conditions: for Synergy with Metronidazole / Synergy with Nystatin: Candida albicans ATCC 90028, each nitrofuran 250 mg/L; for Synergy with Metronidazole: Metronidazole 250 mg/L; for Synergy with Nystatin: Nystatin 0.98 mg/L
Method: as §2

[5] = system: Atopobium vaginae ATCC BAA 55; experiment: Synergistic action at 2-fold lower concentrations than MIC, solid medium; conditions: for Synergy with Metronidazole / Synergy with Nystatin: Atopobium vaginae ATCC BAA 55, Furazidin 0.03 mg/L, Nitrofurantoin 0.98 mg/L, Nifuratel 1.95 mg/L; for Synergy with Metronidazole: Metronidazole 0.5 mg/L; for Synergy with Nystatin: Nystatin 250 mg/L; for synergistic effects with metronidazole (in words): against Atopobium vaginae
Method: (§3) To perform the assay, a pure, 48-hour strain reference culture was used, from which a bacterial suspension with a density of 1.0 McFarland in sterile saline was prepared. The suspension was plated onto Schaedler agar medium supplemented with 5% sheep blood (Becton Dickinson) and a test compound at the appropriate concentration. After incubation, the value MIC was read. Colony growth on the plate indicated no activity of the test compound at tested concentration. As the MIC value, the last lowest concentration as taken, at which there was no microbial growth. […] Lack of bacterial growth on the plate was interpreted as a synergic action. [table]

[6] = system: Gardnerella vaginalis ATCC 14018; experiment: as above; conditions: for Synergy with Metronidazole / Synergy with Nystatin: Gardnerella vaginalis ATCC 14018, Furazidin 0.25 mg/L, Nitrofurantoin 0.5 mg/L, Nifuratel 0.98 mg/L; for Synergy with Metronidazole: Metronidazole 125 mg/L; for Synergy with Nystatin: Nystatin 250 mg/L; for synergistic effects with metronidazole (in words): against Gardnerella vaginalis
Method: as §3

[7] = system: Candida glabrata ATCC 2001; experiment: MIC, macro dilution method for yeast-like fungi in a liquid medium; conditions: for MIC: Nakaseomyces glabratus, read-out: MIC value
Method: (§4) Strains used in the study were Gardnerella vaginalis ATCC 14018, Atopobium vaginae ATCC BAA 55, Candida albicans ATCC 90028, and Candida [NT] 2001. […] Liquid medium RPMI 1640 (Sigma-Aldrich) was used for fungi of the species Candida albicans ATCC 90028, and Candida [NT] 2001, in which 15 serial dilution were prepared in a range 500 μg/mL-0.03 μg/mL. From a pure 24-hour culture on Sabouraud solid medium, a fungal suspension having density of 0.5 McFarland in sterile saline. Next, the suspension was diluted, and was introduced into the RPMI 1640 medium yielding final concentrations of fungi 10^5 CFU/mL. Incubation was carried out for 24 hours in aerobic conditions in 37° C. Colony growth on the plate indicated no activity of the test compound at tested concentration. As the MIC value, the last lowest concentration as taken, at which there was no microbial growth

[8] = system: Candida albicans ATCC 90028; experiment: as above; conditions: for MIC: read-out: MIC value
Method: as §4

[9] = Atopobium vaginae ATCC BAA 55, Schaedler agar, anaerobic, 37° C., 7 days
[10] = Gardnerella vaginalis ATCC 14018, Schaedler agar, microaerophilic, 37° C., 72 hours
[11] = ATCC2001, Candida glabrata ATCC 2001, RPMI 1640, 24 hours, aerobic, 37° C.
[12] = ATCC90028, Candida albicans ATCC 90028, RPMI 1640, 24 hours, aerobic, 37° C.
[13] = Candida glabrata ATCC 2001, RPMI 1640, 24 hours, aerobic, 37° C.
[14] = Candida albicans ATCC 90028, RPMI 1640, 24 hours, aerobic, 37° C.

| Compound | MIC value [1, 9] [mg/L] | MIC [1, 9] [µg/mL] | MIC value [2, 10] [mg/L] | MIC [2, 10] [µg/mL] | antibacterial activity (in words) [1] | antibacterial activity (in words) [2] | Synergy with Metronidazole [3] | Synergy with Nystatin [3] | Synergy with Metronidazole [4] | Synergy with Nystatin [4] | Synergy with Metronidazole [5] | Synergy with Nystatin [5] | synergistic effects with metronidazole (in words) [5] | Synergy with Metronidazole [6] | Synergy with Nystatin [6] | synergistic effects with metronidazole (in words) [6] | MIC [7, 11] [µg/mL] | MIC [8, 12] [µg/mL] | MIC value [7, 13] [mg/L] | MIC value [8, 14] [mg/L] | other results |
| --- | --- | --- | --- | --- | --- | --- | --- | --- | --- | --- | --- | --- | --- | --- | --- | --- | --- | --- | --- | --- | --- |
| CCC[C@@H]1C[C@@H](C(=O)N[C@@H]([C@H]2O[C@H](SC)[C@H](O)[C@@H](O)[C@H]2O)[C@H](C)Cl)N(C)C1 [Clindamycin] | <0.03 | < 0.03 | 1.95 (≈ 4.59 µM) | < 1.95 |  |  |  |  |  |  |  |  |  |  |  |  |  |  |  |  |  |
| O=C1CN(/N=C/C=C/c2ccc([N+](=O)[O-])o2)C(=O)N1 [Furazidin] | <0.03 | < 0.03 | 0.49 (≈ 1.85 µM) | < 0.49 | highest antibacterial activity in the group of nitrofuran derivatives | highest antibacterial activity in the group of nitrofuran derivatives | + | + | + | − | + | + | synergy; also recorded: synergistic effects | + | + | synergy; also recorded: synergistic effects | 500 (≈ 1890 µM) | 500 (≈ 1890 µM) |  |  | synergistic effects with metronidazole (in words) ([3]; against Candida glabrata): synergy; synergistic effects with nystatin (in words) ([3]; against Candida glabrata): synergistic effects; synergistic effects with metronidazole (in words) ([4]; against Candida albicans): synergy; synergistic effects with nystatin (in words) ([5]; on Atopobium vaginae): synergistic effect; synergistic effects with nystatin (in words) ([6]; on Gardnerella vaginalis): synergistic effect |
| Cc1ncc([N+](=O)[O-])n1CCO [Metronidazol, Metronidazole] |  | 0.98 (≈ 5.73 µM) |  | 250 (≈ 1460 µM) | antibacterial activity | antibacterial activity |  |  |  |  |  |  |  |  |  |  | 250 (≈ 1460 µM) | 500 (≈ 2920 µM) |  |  |  |
| CSCC1CN(/N=C/c2ccc([N+](=O)[O-])o2)C(=O)O1 (stereo not shown) [Nifuratel] |  |  |  |  | antibacterial activity | antibacterial activity | + | − | + | − | − | + |  | − | + |  |  |  |  |  | MIC [1]: 3.9 µg/mL (≈ 13.7 µM); MIC [2]: 1.95 µg/mL (≈ 6.84 µM); MIC ([7]; ATCC2001, 24 h): 500 µg/mL (≈ 1750 µM); MIC ([8]; Candida albicans, ATCC90028, 24 h): > 500 µg/mL |
| O=C1CN(/N=C/c2ccc([N+](=O)[O-])o2)C(=O)N1 [Nitrofurantion, Nitrofurantoin] | 1.95 (≈ 8.19 µM) |  | 0.98 (≈ 4.11 µM) |  | antibacterial activity | antibacterial activity | + | − | + | − | + | + | synergistic effects | + | + | synergistic effects |  |  | 500 (≈ 2100 µM) | 500 (≈ 2100 µM) |  |
| C[C@@H]1[C@H](O)[C@@H](C)/C=C/C=C/CC/C=C/C=C/C=C/C=C/C(O[C@H]2O[C@H](C)[C@@H](O)[C@H](N)[C@@H]2O)CC2O[C@](O)(CC(O)C(O)CCC(O)CC(O)CC(O)CC(=O)O[C@H]1C)CC(O)C2C(=O)O (stereo partly shown) [Nystatin] | 500 (≈ 540 µM) |  | 500 (≈ 540 µM) |  |  |  |  |  |  |  |  |  |  |  |  |  |  |  | 1.98 (≈ 2.14 µM) | 1.98 (≈ 2.14 µM) |  |
